This experiment relates to Mycobacterium tuberculosis. Format: functional, organism-based. To be noted: H37Rv, 120 h.

pIC50: −log10 of the molar value. Converted amounts (≈) assume the structure as drawn.

Under “time 5 day”, `O=c1ccc2ncc(=O)n3c2n1C[C@H]3CN1CCC(NCc2cc3c(cn2)OCCC3)CC1` [GEPOTIDACIN] had an MIC of 0.86 µM (≈ 0.386 µg/mL).

Regarding `COc1ccc2nccc(CCN3CCC(NCc4cc(F)c(Cl)c(F)c4)CC3)c2n1`, the negative-log IC50 (pIC50) is 8.15.

These data come from ChEMBL document CHEMBL6074695, “Structural Aspects of Mycobacterium tuberculosis DNA Gyrase Targeted by Novel Bacterial Topoisomerase Inhibitors” (ACS Med Chem Lett, 2024).
